Test results as given in patent US20060014644A1, “Phenylsulfonyl ureas, process for their preparation and their use as herbicides and plant growth regulators” (Hoechst Schering AgrEvo GmbH, priority 1999, published 2006).

Columns and labels:
[1] = system: harmful plants such as Sinapis alba, Chrysanthemum segetum, Avena sativa, Stellaria media, Echinochloa crus-galli, Lolium multiflorum, Setaria spp., Abutilon …; experiment: Pre-emergence effect on weeds (greenhouse pot test, visual scoring); type: in vivo, monocotyledonous and dicotyledonous weed plants; conditions: application rate of 0.3 kg and less of active substance per hectar, scored visually after 3 to 4 weeks by comparison with untreated controls
Text: 1. Pre-Emergence Effect on Weeds
Seeds or rhizome pieces of monocotyledonous and dicotyledonous weed plants were placed in sandy loam soil in cardboard pots and covered with soil. The compounds according to the invention which were formulated in the form of wettable powders or emulsion concentrates were then applied to the surface of the soil cover in the form of aqueous suspensions or emulsions at an application rate of 600 to 800 l of water/ha (converted), in various dosages.
After the treatment, the pots were placed in a greenhouse and kept under good growth conditions for the weeds. After the test plants had emerged, the damage to the plants or the negative effect on the emergence was scored visually after a test period of 3 to 4 weeks by comparison with untreated controls. As shown by the test results, compounds according to the invention have good herbicidal pre-emergence activity against a broad spectrum of weed grasses and broad-leafed weeds.

[2] = system: harmful plants such as Sinapis alba, Echinochloa crus-galli, Lolium multiflorum, Chrysanthemum segetum, Setaria spp., Abutilon theophrasti, Amaranthus …; experiment: Post-emergence effect on weeds (greenhouse pot test, visual scoring); type: in vivo, monocotyledonous and dicotyledonous weeds; conditions: three-leaf stage, application rate of 0.3 kg and less of active substance per hectare, scored visually after about 3 to 4 weeks by comparison with untreated controls
Procedure: 2. Post-Emergence Effect on Weeds
Seeds or rhizome pieces of monocotyledonous and dicotyledonous weeds were placed in sandy loam soil in plastic pots, covered with soil and grown in a greenhouse under good growth conditions. Three weeks after sowing, the test plants were treated at the three-leaf stage. The compounds according to the invention which were formulated as wettable powders or emulsion concentrates were sprayed, at various dosages, onto the green parts of the plants at an application rate of 600 to 800 l of water/ha (converted). After the test plants had remained in the greenhouse for about 3 to 4 weeks under ideal growth conditions, the effect of the preparations was scored visually by comparison with untreated controls. The agents according to the invention also have good herbicidal activity post-emergence against a broad spectrum of economically important Weed grasses and broad-loafed weeds.

| SMILES | herbicidal activity against harmful plants, pre-emergence [1] | herbicidal activity against harmful plants, post-emergence [2] |
| --- | --- | --- |
| CCNc1cccc(S(=O)(=O)NC(=O)Nc2nc(OC)cc(OC)n2)c1C(=O)OC [Example 1-129] | very good herbicidal activity | very good herbicidal activity |
| COC(=O)c1c(N(CC(C)C)CC(C)C)cccc1S(=O)(=O)NC(=O)Nc1nc(OC)cc(OC)n1 [Example 1-425] | very good herbicidal activity | very good herbicidal activity |
| COC(=O)c1c(N(C)C)cccc1S(=O)(=O)NC(=O)Nc1nc(OC)cc(OC)n1 [Example 1-401] | very good herbicidal activity | very good herbicidal activity |
| COC(=O)c1c(N)cccc1S(=O)(=O)[N-]C(=O)Nc1nc(C)nc(OC)n1.[Na+] [Example 1-16] | very good herbicidal activity | very good herbicidal activity |
| COC(=O)c1c(NCc2ccccc2)cccc1S(=O)(=O)NC(=O)Nc1nc(OC)cc(OC)n1 [Example 1-381] | very good herbicidal activity | very good herbicidal activity |
